Source: US8754073B2, “Substituted piperazino-dihydrothienopyrimidines” (Boehringer Ingelheim International GmbH, priority 2007, dated 2014)
Where a name gives a salt, the structure may show the parent alone.

Target: PDE4B (Homo sapiens, UniProt Q07343)
Experiment: Scintillation Proximity Assay (SPA) of PDE4B enzyme activity ([H3]-cAMP cleavage)
Format: biochemical
Settings: test substance 1 μM
Method: The inhibitions (in %) at 1 μM of the individual Example substances are given in the following Table of Examples and were determined as follows:
The Scintillation Proximity Assay (SPA) (GE Healthcare, No. TRKQ7090) was carried out by using the different affinities of cyclic 3′-5′-adenosinemonophosphate (cAMP, low affinity) and linear 5′-adenosinemonophosphate (AMP, high affinity) for yttrium silicate scintillator beads. The cAMP specific phosphodiesterase (PDE) PDE4B cleaves the 3′-phosphoester bond of tritium-labelled [H3]-cAMP to form [H3]-5′-AMP. This [H3]-AMP accumulates on the scintillator beads because of its higher affinity for them and causes scintillation events (flashes of light) which are measured in a Wallac Microbeta Scintillation Counter.
The experiment starts with a one-hour incubation of [H3]-cAMP with the PDE4B enzyme in assay buffer at 30° C., in each case once with the Example substance to be tested (in a concentration of 1 μM) and once without the Example substance to be tested.
After this incubation, the reaction is stopped by the addition of the beads. The beads have an opportunity to settle in the next 45 minutes, then the measurement is carried out in the Scintillation Counter. If the substance is capable of inhibiting the enzymatic activity of the PDE4B, less [H3]-AMP is produced during the incubation phase and fewer scintillation events can be measured.

[1] = one-hour incubation of [H3]-cAMP with PDE4B enzyme at 30° C.
[2] = one-hour incubation with [H3]-cAMP at 30° C.

Chain of PDE4B (Q07343 whole entry, species assumed): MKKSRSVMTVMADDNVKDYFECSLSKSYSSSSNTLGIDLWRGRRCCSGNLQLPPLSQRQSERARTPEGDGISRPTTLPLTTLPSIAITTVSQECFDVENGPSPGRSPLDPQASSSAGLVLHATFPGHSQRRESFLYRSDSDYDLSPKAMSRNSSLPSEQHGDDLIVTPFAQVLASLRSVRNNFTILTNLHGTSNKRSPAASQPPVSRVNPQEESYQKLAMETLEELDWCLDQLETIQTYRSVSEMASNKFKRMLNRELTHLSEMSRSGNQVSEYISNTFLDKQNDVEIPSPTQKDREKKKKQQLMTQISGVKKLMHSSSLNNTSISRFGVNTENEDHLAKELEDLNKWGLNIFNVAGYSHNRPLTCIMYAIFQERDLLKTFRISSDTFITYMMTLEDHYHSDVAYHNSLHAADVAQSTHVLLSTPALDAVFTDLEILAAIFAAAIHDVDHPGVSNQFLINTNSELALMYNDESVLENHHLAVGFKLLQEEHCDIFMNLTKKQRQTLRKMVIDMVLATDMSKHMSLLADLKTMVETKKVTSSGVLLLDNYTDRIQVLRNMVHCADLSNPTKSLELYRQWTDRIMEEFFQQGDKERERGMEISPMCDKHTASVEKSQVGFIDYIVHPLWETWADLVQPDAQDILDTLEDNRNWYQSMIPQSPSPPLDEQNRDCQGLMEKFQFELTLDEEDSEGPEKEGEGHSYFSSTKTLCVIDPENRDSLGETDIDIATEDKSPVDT

Row | Structure (SMILES) | inhibition at 1 µM [1] [%] | inhibition at 1 µM [2] [%]
1 | [O-][S+]1CCc2nc(N3CCC(c4c[nH]cn4)CC3)nc(NC3CCOCC3)c21 (stereo not shown) [Example 57] | 86 | 
2 | CN1C[C@@H](Nc2nc(N3CCC4(CC3)c3ccccc3NC(=O)N4C)nc3c2[S+]([O-])CC3)CCC1=O (stereo partly drawn) [Example 43, (S)-3′-Methyl-1-(4-(1-Methyl-6-Oxopiperidin-3-Ylamino)-5-Oxo-6,7-Dihydro-5H-5λ^4-Thieno[3,2-d]Pyrimidin-2-YL)-3′-Methyl-1′H-Spiro[Piperidin-4,4′-Quinazolin]-2′(3′H)-One] | 95 | 
3 | [O-][S+]1CCc2nc(N3CCC(c4cc5ccccc5o4)CC3)nc(Nc3cccc(F)c3)c21 (stereo not shown) [Example 141] | 97 | 
4 | O=C1Nc2ccccc2C2(CCN(c3nc4c(c(Nc5cccc(F)c5)n3)[S+]([O-])CC4)CC2)N1 (stereo not shown) [Example 81] | 83 | 
5 | CC(C)[C@H](CO)Nc1nc(N2CCC(c3ccc(C#N)cc3)CC2)nc2c1[S+]([O-])CC2 (stereo partly shown) [Example 20] | 94 | 
6 | CN1C[C@@H](Nc2nc(N3CCC(O)(c4cc(F)cc(F)c4)CC3)nc3c2[S+]([O-])CC3)CCC1=O (stereo partly shown) [Example 47] | 97 | 
7 | [O-][S+]1CCc2nc(N3CCC(c4cc(-c5ccco5)n[nH]4)CC3)nc(NC3(CO)CC3)c21 (stereo not shown) [Example 114] | 96 | 
8 | [O-][S+]1CCc2nc(N3CCC(c4cccc(F)c4)CC3)nc(NC3CCOCC3)c21 (stereo not shown) [Example 86] | 94 | 
9 | CN1C[C@@H](Nc2nc(N3CCC(c4nc(-c5ccncc5)no4)CC3)nc3c2[S+]([O-])CC3)CCC1=O (stereo partly shown) [Example 188] |  | 97
10 | CN1C[C@@H](Nc2nc(N3CCC(c4cccc(Cl)c4)CC3)nc3c2[S+]([O-])CC3)CCC1=O (stereo partly shown) [Example 54] | 97 | 
11 | [O-][S+]1CCc2nc(N3CCC(c4noc5ccc(F)cc45)CC3)nc(NC3(CO)CC3)c21 (stereo not shown) [Example 106] | 95 | 
12 | CN1C(=O)Nc2ccccc2C12CCN(c1nc3c(c(Nc4cccc(F)c4)n1)[S+]([O-])CC3)CC2 (stereo not shown) [Example 73, 1-(4-(3-fluorophenylamino)-5-oxo-6,7-dihydro-5H-5λ^4-thieno[3,2-d]pyrimidin-2-yl)-3′-methyl-1′H-spiro[piperidin-4,4′-quinazolin]-2′(3′H)-one] | 94 | 
13 | [O-][S+]1CCc2nc(N3CCC(Oc4ccccn4)CC3)nc(NC3CCOCC3)c21 (stereo not shown) [Example 173] |  | 95
14 | CS(=O)(=O)N1CC2(CCN(c3nc4c(c(NC5(CO)CC5)n3)[S+]([O-])CC4)CC2)c2ccccc21 (stereo not shown) [Example 30] | 89 | 
15 | [O-][S+]1CCc2nc(N3CCC(Oc4ccc(F)cc4)CC3)nc(NC3(CO)CC3)c21 (stereo not shown) [Example 167] |  | 91
16 | [O-][S+]1CCc2nc(N3CCC(c4ccc5ccccc5c4)CC3)nc(Nc3cccc(F)c3)c21 (stereo not shown) [Example 142] | 94 | 
17 | CC(C)c1noc(C2CCN(c3nc4c(c(Nc5cccc(F)c5)n3)[S+]([O-])CC4)CC2)n1 (stereo not shown) [Example 144] | 94 | 
18 | CC(C)[C@H](CO)Nc1nc(N2CCC(c3cccc(C#N)c3)CC2)nc2c1[S+]([O-])CC2 (stereo partly shown) [Example 154] | 92 | 
19 | [O-][S+]1CCc2nc(N3CCC(c4nc(-c5cccnc5)no4)CC3)nc(Nc3cccc(F)c3)c21 (stereo not shown) [Example 146] | 96 | 
20 | N#Cc1ccc(C2CCN(c3nc4c(c(Nc5cccc(F)c5)n3)[S+]([O-])CC4)CC2)cc1 (stereo not shown) [Example 79] | 96 | 
21 | [O-][S+]1CCc2nc(N3CCC(c4nc(-c5ccncc5)no4)CC3)nc(Nc3cccc(F)c3)c21 (stereo not shown) [Example 147, (3-Fluorophenyl)-{5-Oxo-2-[4-(3-Pyridin-4-Yl-[1,2,4]Oxadiazol-5-Yl)-Piperidin-1-Yl]-6,7-Dihydro-5H-5λ^4-Thieno[3,2-d]Pyrimidin-4-Yl}-Amine Trifluoroacetate] | 95 | 
22 | [O-][S+]1CCc2nc(N3CCC(Oc4ccc(F)cc4)CC3)nc(Nc3cccc(F)c3)c21 (stereo not shown) [Example 165] |  | 92
23 | COC(=O)c1cccc(C2CCN(c3nc4c(c(NC5CCOCC5)n3)[S+]([O-])CC4)CC2)c1 (stereo not shown) [Example 120] | 95 | 
24 | [O-][S+]1CCc2nc(N3CCC(Oc4ccc(F)c(F)c4)CC3)nc(NC3CCOCC3)c21 (stereo not shown) [Example 175] |  | 89
25 | Cc1cccc(C2CCN(c3nc4c(c(NC5(CO)CC5)n3)[S+]([O-])CC4)CC2)c1 (stereo not shown) [Example 8] | 93 | 
26 | O=C1Nc2ccccc2C2(CCN(c3nc4c(c(Nc5cccc(F)c5)n3)[S+]([O-])CC4)CC2)O1 (stereo not shown) [Example 80] | 94 | 
27 | CC(C)[C@H](CO)Nc1nc(N2CCC(Oc3ccc(F)cc3)CC2)nc2c1[S+]([O-])CC2 (stereo partly shown) [Example 168] |  | 89
28 | [O-][S+]1CCc2nc(N3CCC(Oc4ccc(F)cc4)CC3)nc(NC3CCOCC3)c21 (stereo not shown) [Example 166] |  | 92
29 | [O-][S+]1CCc2nc(N3CCC(c4ccc(C(F)(F)F)cc4)CC3)nc(NC3(CO)CC3)c21 (stereo not shown) [Example 95, (1-{5-Oxo-2-[4-(4-Trifluoromethylphenyl)-Piperidin-1-Yl]-6,7-Dihydro-5H-5λ^4-Thieno[3,2-d]Pyrimidin-4-Ylamino}-Cyclopropyl)-Methanol] | 93 | 

Now from value to compound:

Row | inhibition at 1 µM [1] [%] | inhibition at 1 µM [2] [%] | Structure (SMILES)
30 |  | 92 | COC1(c2ccc(Cl)cc2)CCN(c2nc3c(c(Nc4cccc(F)c4)n2)[S+]([O-])CC3)CC1 (stereo not shown) [Example 316]
31 |  | 73 | O=C(c1ccc(F)cc1)C1(c2ccc(F)cc2)CCN(c2nc3c(c(NC4CCOCC4)n2)[S+]([O-])CC3)CC1 (stereo not shown) [Example 297]
32 |  | 83 | O=C(c1ccc(C2CCN(c3nc4c(c(NC5CCOCC5)n3)[S+]([O-])CC4)CC2)cc1)N1CCOCC1 (stereo not shown) [Example 227]
33 |  | 96 | CN1C[C@@H](Nc2nc(N3CCC(Oc4ccc(C5=NCCO5)cc4)CC3)nc3c2[S+]([O-])CC3)CCC1=O (stereo partly shown) [Example 199]
34 |  | 89 | COC1(c2ccc(Cl)cc2)CCN(c2nc3c(c(NC4CCOCC4)n2)[S+]([O-])CC3)CC1 (stereo not shown) [Example 313]
35 |  | 96 | CN1C[C@@H](Nc2nc(N3CCC(C(=O)c4ccc(F)cc4)(c4ccc(F)cc4)CC3)nc3c2[S+]([O-])CC3)CCC1=O (stereo partly shown) [Example 203, 5-{2-[4-(4-fluorobenzoyl)-4-(4-fluorophenyl)-piperidin-1-yl]-5-oxo-6,7-dihydro-5H-5λ^4-thieno[3,2-d]pyrimidin-4-ylamino}-1-methylpiperidin-2-one]
36 |  | 93 | CN1CCC(N(C)C(=O)c2ccc(OC3CCN(c4nc5c(c(NC6CCOCC6)n4)[S+]([O-])CC5)CC3)cc2)CC1 (stereo not shown) [Example 241]
37 |  | 88 | COC1(c2ccc(Cl)cc2)CCN(c2nc3c(c(NC4(CO)CC4)n2)[S+]([O-])CC3)CC1 (stereo not shown) [Example 314]
38 |  | 93 | N#Cc1ccc(OC2CCN(c3nc4c(c(NC5CCOCC5)n3)[S+]([O-])CC4)CC2)cc1 (stereo not shown) [Example 321]
39 | 65 |  | O=S1(=O)CCc2nc(N3CCC(c4ccc(Cl)cc4)CC3)nc(NC3CCOCC3)c21 [Example 334, {2-[4-(4-chlorophenyl)-piperidin-1-yl]-5.5-dioxo-6,7-dihydro-5H-5λ^6-thieno[3,2-d]pyrimidin-4-yl}-(tetrahydropyran-4-yl)-amine]
40 |  | 88 | COCC(=O)NCC1(c2ccccc2)CCN(c2nc3c(c(NC4CCOCC4)n2)[S+]([O-])CC3)CC1 (stereo not shown) [Example 217]
41 |  | 81 | [O-][S+]1CCc2nc(N3CCC(O)(c4ccc(Cl)cc4)CC3)nc(NC3(CO)CC3)c21 (stereo not shown) [Example 289]
42 |  | 89 | CC(C)[C@H](CO)Nc1nc(N2CCC(COCc3ccccc3)(c3ccc(Cl)cc3)CC2)nc2c1[S+]([O-])CC2 (stereo partly shown) [Example 307]
43 |  | 79 | CC(C)C(=O)N1CCc2ccc(OC3CCN(c4nc5c(c(NC6CCOCC6)n4)[S+]([O-])CC5)CC3)cc2CC1 (stereo not shown) [Example 215]
44 |  | 95 | [O-][S+]1CCc2nc(N3CCC(c4nnc(-c5ccccc5)o4)CC3)nc(NC3CCOCC3)c21 (stereo not shown) [Example 317]
45 |  | 94 | [O-][S+]1CCc2nc(N3CCC(c4n[nH]c5ccccc45)CC3)nc(NC3CCOCC3)c21 (stereo not shown) [Example 221]
46 |  | 94 | Cc1nn(C)cc1CNC(=O)c1ccc(OC2CCN(c3nc4c(c(NC5CCOCC5)n3)[S+]([O-])CC4)CC2)cc1 (stereo not shown) [Example 263]
47 |  | 81 | Cc1nn(C)c(C)c1CNC(=O)c1ccc(C2CCN(c3nc4c(c(NC5CCOCC5)n3)[S+]([O-])CC4)CC2)cc1 (stereo not shown) [Example 230]
48 |  | 94 | Cc1nn(C)cc1CNC(=O)c1ccc(C2CCN(c3nc4c(c(NC5CCOCC5)n3)[S+]([O-])CC4)CC2)cc1 (stereo not shown) [Example 262]
49 |  | 95 | Cn1cc(C2CCN(c3nc4c(c(NC5CCOCC5)n3)[S+]([O-])CC4)CC2)c2cc(C(C)(C)C)ccc21 (stereo not shown) [Example 192, {2-[4-(5-tert-butyl-1-methyl-1H-indol-3-yl)-piperidin-1-yl]-5-oxo-6,7-dihydro-5H-5λ^4-thieno[3,2-d]pyrimidin-4-yl}-(tetrahydropyran-4-yl)-amine]
50 |  | 80 | [O-][S+]1CCc2nc(N3CCC(Oc4ccncc4)CC3)nc(NC3CCOCC3)c21 (stereo not shown) [Example 268]
51 |  | 93 | Cc1cn(C)nc1CN(C)C(=O)c1cccc(C2CCN(c3nc4c(c(NC5CCOCC5)n3)[S+]([O-])CC4)CC2)c1 (stereo not shown) [Example 258]
52 |  | 87 | CS(=O)(=O)NCC1(c2ccccc2)CCN(c2nc3c(c(NC4CCOCC4)n2)[S+]([O-])CC3)CC1 (stereo not shown) [Example 325]
